Laboratory results as given in ChEMBL document CHEMBL3885881, “DrugMatrix”.

Species on record: Rattus norvegicus
Assay: DrugMatrix - Regimen: Daily Repeat
Type: toxicity, organism-based, Sprague-Dawley
Design: regimen Daily Repeat, gender Male, age 6-8 weeks
Conditions: in vivo, po, route oral GAVAGE, vehicle 100 % WATER; for ABSOLUTE BASOPHIL / ABSOLUTE EOSINOPHIL / ABSOLUTE LYMPHOCYTE / ABSOLUTE MONOCYTE / ABSOLUTE SEGMENTED NEUTROPHIL / BASOPHIL / EOSINOPHIL / ERYTHROCYTE COUNT / HEMATOCRIT / HEMOGLOBIN / LEUKOCYTE COUNT / LYMPHOCYTE / MEAN CORPUSCULAR HEMOGLOBIN / MEAN CORPUSCULAR HEMOGLOBIN CONCENTRATION / MONOCYTE / NEUTROPHIL / NUCLEATED RED BLOOD CELLS / PLATELET COUNT: tissue Blood; for ALANINE AMINOTRANSFERASE / ALBUMIN / ALKALINE PHOSPHATASE / ASPARTATE AMINOTRANSFERASE / BLOOD UREA NITROGEN / CARBON DIOXIDE / CHLORIDE / CHOLESTEROL / CREATINE PHOSPHOKINASE / CREATININE / GLUCOSE / LACTATE DEHYDROGENASE / LIPASE / PHOSPHORUS / POTASSIUM / SODIUM / TOTAL BILIRUBIN / TOTAL PROTEIN / URIC ACID: tissue Plasma
[1] = 0 mg/kg, 72 h, dose level Control, time 3 day
[2] = 0 mg/kg, 120 h, dose level Control, time 5 day
[3] = 50 mg/kg, 72 h, dose level Low, time 3 day

Q: Which results are given for `C[C@H](CS)C(=O)N1CCC[C@H]1C(=O)O` [CAPTOPRIL]?
A: ABSOLUTE BASOPHIL [1]: 0 CELLS/uL; ABSOLUTE EOSINOPHIL [1]: 0 CELLS/uL; ABSOLUTE LYMPHOCYTE [1]: 10386.33 CELLS/uL; ABSOLUTE MONOCYTE [1]: 88.5 CELLS/uL; ABSOLUTE SEGMENTED NEUTROPHIL [1]: 1008.5 CELLS/uL; BASOPHIL [1]: 0%; EOSINOPHIL [1]: 0%; ERYTHROCYTE COUNT [1]: 5.16 x10E6/uL; HEMATOCRIT [1]: 32.43%; HEMOGLOBIN [1]: 12.98 G/DL; LEUKOCYTE COUNT [1]: 11.48 x10E3/uL; LYMPHOCYTE [1]: 92.33%; MEAN CORPUSCULAR HEMOGLOBIN [1]: 25.23 pg; MEAN CORPUSCULAR HEMOGLOBIN CONCENTRATION [1]: 40.08 G/DL; MONOCYTE [1]: 0.67%; NEUTROPHIL [1]: 7%; NUCLEATED RED BLOOD CELLS [1]: 0 /100WBC; PLATELET COUNT [1]: 1016.67 x10E3/uL; ALANINE AMINOTRANSFERASE [1]: 62.17 u/L; ALBUMIN [1]: 3.95 G/DL; ALKALINE PHOSPHATASE [1]: 363.5 u/L; ASPARTATE AMINOTRANSFERASE [1]: 118 u/L; BLOOD UREA NITROGEN [1]: 14.5 mg/dL; CARBON DIOXIDE [1]: 22.83 mmol/L; CHLORIDE [1]: 100.67 MEQ/L; CHOLESTEROL [1]: 66 mg/dL; CREATINE PHOSPHOKINASE [1]: 1308.83 u/L; CREATININE [1]: 0.22 mg/dL; GLUCOSE [1]: 187.5 mg/dL; LACTATE DEHYDROGENASE [1]: 380.17 u/L; LIPASE [1]: 16.17 u/L; PHOSPHORUS [1]: 14.27 mg/dL; POTASSIUM [1]: 6.8 MEQ/L; SODIUM [1]: 142.53 MEQ/L; TOTAL BILIRUBIN [1]: 0.2 mg/dL; TOTAL PROTEIN [1]: 5.68 G/DL; URIC ACID [1]: 2.87 mg/dL; ABSOLUTE BASOPHIL [2]: 0 CELLS/uL; ABSOLUTE EOSINOPHIL [2]: 80 CELLS/uL; ABSOLUTE LYMPHOCYTE [2]: 13301.33 CELLS/uL; ABSOLUTE MONOCYTE [2]: 180.83 CELLS/uL; ABSOLUTE SEGMENTED NEUTROPHIL [2]: 1187.83 CELLS/uL; BASOPHIL [2]: 0%; EOSINOPHIL [2]: 0.5%; ERYTHROCYTE COUNT [2]: 5.54 x10E6/uL; HEMATOCRIT [2]: 35.65%; HEMOGLOBIN [2]: 14.22 G/DL; LEUKOCYTE COUNT [2]: 14.75 x10E3/uL; LYMPHOCYTE [2]: 90.67%; MEAN CORPUSCULAR HEMOGLOBIN [2]: 25.65 pg; MEAN CORPUSCULAR HEMOGLOBIN CONCENTRATION [2]: 39.88 G/DL; MONOCYTE [2]: 1%; NEUTROPHIL [2]: 7.83%; NUCLEATED RED BLOOD CELLS [2]: 0.17 /100WBC; PLATELET COUNT [2]: 1285.33 x10E3/uL; ALANINE AMINOTRANSFERASE [2]: 51.67 u/L; ALBUMIN [2]: 4.08 G/DL; ALKALINE PHOSPHATASE [2]: 391.5 u/L; ASPARTATE AMINOTRANSFERASE [2]: 99.5 u/L; BLOOD UREA NITROGEN [2]: 15.5 mg/dL; CARBON DIOXIDE [2]: 28.33 mmol/L; CHLORIDE [2]: 101.83 MEQ/L; CHOLESTEROL [2]: 67.83 mg/dL; CREATINE PHOSPHOKINASE [2]: 771.33 u/L; CREATININE [2]: 0.23 mg/dL; GLUCOSE [2]: 156.5 mg/dL; LACTATE DEHYDROGENASE [2]: 544.33 u/L; LIPASE [2]: 10.17 u/L; PHOSPHORUS [2]: 12.03 mg/dL; POTASSIUM [2]: 6.81 MEQ/L; SODIUM [2]: 144.13 MEQ/L; TOTAL BILIRUBIN [2]: 0.22 mg/dL; TOTAL PROTEIN [2]: 6 G/DL; URIC ACID [2]: 2.18 mg/dL; ABSOLUTE BASOPHIL [3]: 0 CELLS/uL; ABSOLUTE EOSINOPHIL [3]: 0 CELLS/uL; ABSOLUTE LYMPHOCYTE [3]: 12527.33 CELLS/uL; ABSOLUTE MONOCYTE [3]: 193.67 CELLS/uL; ABSOLUTE SEGMENTED NEUTROPHIL [3]: 645.67 CELLS/uL; BASOPHIL [3]: 0%; EOSINOPHIL [3]: 0%; ERYTHROCYTE COUNT [3]: 5.11 x10E6/uL; HEMATOCRIT [3]: 32.47%; HEMOGLOBIN [3]: 12.77 G/DL; LEUKOCYTE COUNT [3]: 13.37 x10E3/uL; LYMPHOCYTE [3]: 93.67%; MEAN CORPUSCULAR HEMOGLOBIN [3]: 25 pg; MEAN CORPUSCULAR HEMOGLOBIN CONCENTRATION [3]: 39.33 G/DL; MONOCYTE [3]: 1.33%; NEUTROPHIL [3]: 5%; NUCLEATED RED BLOOD CELLS [3]: 0 /100WBC; PLATELET COUNT [3]: 1185.33 x10E3/uL; ALANINE AMINOTRANSFERASE [3]: 55.33 u/L; ALBUMIN [3]: 4.23 G/DL; ALKALINE PHOSPHATASE [3]: 396.33 u/L; ASPARTATE AMINOTRANSFERASE [3]: 89.33 u/L; BLOOD UREA NITROGEN [3]: 15.33 mg/dL; CARBON DIOXIDE [3]: 24.67 mmol/L; CHLORIDE [3]: 99.67 MEQ/L; CHOLESTEROL [3]: 77.67 mg/dL; CREATINE PHOSPHOKINASE [3]: 344.67 u/L; CREATININE [3]: 0.22 mg/dL; GLUCOSE [3]: 154.67 mg/dL; LACTATE DEHYDROGENASE [3]: 230.67 u/L; LIPASE [3]: 11.67 u/L; PHOSPHORUS [3]: 12.57 mg/dL; POTASSIUM [3]: 6.98 MEQ/L; SODIUM [3]: 141.83 MEQ/L; TOTAL BILIRUBIN [3]: 0.2 mg/dL; TOTAL PROTEIN [3]: 5.87 G/DL
